Experimental data published in ChEMBL document CHEMBL1201862, “PubChem BioAssay data set” (2004).
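Method: 48-hour compound exposure of cells in 96-well plates, five concentrations, linear interpolation of endpoints. GI50 = concentration required for 50% inhibition of growth.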 The source made the active and inactive calls. Cut-off read from the data, not from the text of the source: active = GI50 up to about 1.1 µM and inactive = higher.

Key:
Assay in all cases: growth of human tumour cells (NCI), 48 h
OVCAR-5 = tested on: OVCAR-5
XF498 = tested on: XF498
TK-10 = tested on: TK-10
HT-29 = tested on: HT-29
LOX IMVI = tested on: LOX IMVI
KM12 = tested on: KM12
SN12C = tested on: SN12C
SNB-75 = tested on: SNB-75
NCI-H522 = tested on: NCI-H522
SK-OV-3 = tested on: SK-OV-3
OVCAR-4 = tested on: OVCAR-4
K562 = tested on: K562
UACC-257 = tested on: UACC-257
NCI-H226 = tested on: NCI-H226
ACHN = tested on: ACHN
HCT-15 = tested on: HCT-15
RPMI-8226 = tested on: RPMI-8226
DMS-114 = tested on: DMS-114
DLD-1 = tested on: DLD-1
EKVX = tested on: EKVX
OVCAR-3 = tested on: OVCAR-3
DMS-273 = tested on: DMS-273
HCC 2998 = tested on: HCC 2998
M19-MEL = tested on: M19-MEL
SNB-19 = tested on: SNB-19
OVCAR-8 = tested on: OVCAR-8
KM-20L2 = tested on: KM-20L2
HOP-62 = tested on: HOP-62
SF-539 = tested on: SF-539
UO-31 = tested on: UO-31
A549 = tested on: A549
LXFL 529 = tested on: LXFL 529
CAKI-1 = tested on: CAKI-1
COLO 205 = tested on: COLO 205
HL-60 = tested on: HL-60
HOP-92 = tested on: HOP-92
SK-MEL-2 = tested on: SK-MEL-2
SF-295 = tested on: SF-295
SK-MEL-5 = tested on: SK-MEL-5
NCI-H23 = tested on: NCI-H23
U-251 = tested on: U-251
NCI-H460 = tested on: NCI-H460
SF-268 = tested on: SF-268
786-0 = tested on: 786-0
Malme-3M = tested on: Malme-3M
HOP-18 = tested on: HOP-18
SR = tested on: SR
CCRF-CEM = tested on: CCRF-CEM
M14 = tested on: M14
HCT-116 = tested on: HCT-116
SK-MEL-28 = tested on: SK-MEL-28
UACC-62 = tested on: UACC-62
RXF 393 = tested on: RXF 393
SW-620 = tested on: SW-620
MOLT-4 = tested on: MOLT-4

COc1cc(/C=C/C(=O)C(C)(C)C)cc(OC)c1OC
GI50 (OVCAR-5): > 100 µM (inactive)
GI50 (XF498): 82 µM (inactive)
GI50 (TK-10): > 100 µM (inactive)
GI50 (HT-29): 38 µM (inactive)
GI50 (LOX IMVI): 19.7 µM (inactive)
GI50 (KM12): 24.8 µM (inactive)
GI50 (SN12C): 34.3 µM (inactive)
GI50 (SNB-75): 25.9 µM (inactive)
GI50 (NCI-H522): 29 µM (inactive)
GI50 (SK-OV-3): 29.8 µM (inactive)
GI50 (OVCAR-4): 14.8 µM (inactive)
GI50 (K562): 37.6 µM (inactive)
GI50 (UACC-257): 28.1 µM (inactive)
GI50 (NCI-H226): 33.6 µM (inactive)
GI50 (ACHN): 39.7 µM (inactive)
GI50 (HCT-15): 61.8 µM
GI50 (RPMI-8226): 34.3 µM (inactive)
GI50 (DMS-114): 25.6 µM (inactive)
GI50 (DLD-1): 37.9 µM (inactive)
GI50 (EKVX): 45.7 µM (inactive)
GI50 (OVCAR-3): 37.2 µM (inactive)
GI50 (DMS-273): 40.1 µM (inactive)
GI50 (HCC 2998): 48.2 µM (inactive)
GI50 (M19-MEL): 31.8 µM (inactive)
GI50 (SNB-19): > 100 µM (inactive)
GI50 (OVCAR-8): 33.4 µM (inactive)
GI50 (KM-20L2): 51.1 µM (inactive)
GI50 (HOP-62): > 100 µM (inactive)
GI50 (SF-539): 33.3 µM (inactive)
GI50 (UO-31): > 100 µM (inactive)
GI50 (A549): 32.2 µM (inactive)
GI50 (LXFL 529): 22.8 µM (inactive)
GI50 (CAKI-1): 50.1 µM (inactive)
GI50 (COLO 205): 40 µM (inactive)
GI50 (HL-60): 21.1 µM (inactive)
GI50 (HOP-92): 41.1 µM (inactive)
GI50 (SK-MEL-2): 32.7 µM (inactive)
GI50 (SF-295): 38.9 µM (inactive)
GI50 (SK-MEL-5): 42.3 µM (inactive)
GI50 (NCI-H23): 29.9 µM (inactive)
GI50 (U-251): 37.8 µM (inactive)
GI50 (NCI-H460): 25.5 µM (inactive)
GI50 (SF-268): 33.9 µM (inactive)
GI50 (786-0): 53.7 µM (inactive)
GI50 (Malme-3M): 71.8 µM (inactive)
GI50 (HOP-18): > 100 µM (inactive)
GI50 (SR): 30.2 µM (inactive)
GI50 (CCRF-CEM): 33.2 µM (inactive)
GI50 (M14): 33.3 µM (inactive)
GI50 (HCT-116): 29.9 µM (inactive)
GI50 (SK-MEL-28): 63 µM (inactive)
GI50 (UACC-62): 36.9 µM (inactive)
GI50 (RXF 393): 28.4 µM (inactive)
GI50 (SW-620): 32.7 µM (inactive)
GI50 (MOLT-4): 32.8 µM (inactive)
